Measured values published in US11066416B2, “Rapafucin derivative compounds and methods of use thereof” (The Johns Hopkins University, priority 2016, dated 2021).

What was measured:
Format in all cases: cell-based
[1] = tested on: 293T; experiment: Nucleoside uptake assay (uptake) using 3H-Thymidine, 293T; details: 293T cells
Procedure: (§1) Nucleoside Uptake Assay (uptake). Nuceloside uptake assays were performed with using 3H-Thymidine as described in Guo et al. (2018) Nat. Chem. 11:254-63. Specific cell lines are indicated in each assay and cultured in complete growth media. Activity is scored according to the IC50 values relative to DMSO control. “Low” indicates an IC50 greater than 600 nM, “Medium” indicates an IC50 between 300 nM and 600 nM “High” indicates an IC50 less than 300 nM. “Rel.Uptake” refers to uptake activity characterization relative to a single concentration assay. “Low” indicates a response greater than 0.6 times the activity relative to DMSO, “Medium” indicates a response between 0.6 and 0.3 times the activity relative to DMSO, “High” indicates a response less than 0.3 times the activity relative to DMSO.

[2] = tested on: nucleoside uptake (3H-Thymidine); experiment: Rel.Uptake: nucleoside uptake, single concentration assay, cell line as indicated in each table; details: response relative to DMSO
How it was run: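 3H-thymidine uptake measured in the indicated cell lines (e.g. 293T) grown in complete media. IC50 scored relative to DMSO control as Low >600 nM, Medium 300-600 nM, High <300 nM; Rel.Uptake single-concentration response vs DMSO scored Low >0.6, Medium 0.3-0.6, High <0.3.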

[3] = tested on: nucleoside uptake (3H-Thymidine); experiment: Nucleoside uptake assay (uptake) using 3H-Thymidine, IC50, cell line as indicated in each table (none given in Table 8); details: 3H-Thymidine uptake; cell line not given
Procedure: as §1

[4] = IC50 class relative to DMSO control

COc1ccc(CC[C@H]2OC(=O)[C@@H]3CCCCN3C(=O)C(=O)C(C)(C)COC(=O)C=CCCN(C)C(=O)[C@H](CC(C)C)N(C)C(=O)[C@H]3CCCN3C(=O)[C@H](CC(=O)OC(C)(C)C)N(C)C(=O)C(c3ccccc3)NC(=O)CCC(=O)Nc3cccc2c3)cc1OC (stereo partly drawn) [Compound 1066]
Uptake, 293T [1, 4]: high | Rel. Uptake, 293T ([2]; 293T): high

COc1ccc(CC[C@H]2OC(=O)[C@@H]3CCCCN3C(=O)C(=O)C(C)(C)COC(=O)C=CCCN(C)C(=O)[C@H](CC(C)C)N(C)C(=O)[C@H]3CCCN3C(=O)[C@H](Cc3ccc(C(=O)Nc4cccnc4)cc3)NC(=O)[C@H](c3ccccc3)NC(=O)CCC(=O)Nc3cccc2c3)cc1OC [Compound 1562]
Uptake, 293T ([1]; Table 15): low | Rel. Uptake, 293T ([2]; 293T, nucleoside uptake): low

COc1ccc(CC[C@H]2OC(=O)[C@@H]3CCCCN3C(=O)C(=O)C(C)(C)CNC(=O)C=CCCN(C)C(=O)[C@H](CC(C)C)N(C)C(=O)[C@H]3CCCN3C(=O)[C@H](Cc3ccccc3)N(C)C(=O)C(c3ccccc3)NC(=O)CCC(=O)Nc3cccc2c3)cc1OC (stereo partly drawn) [Compound 1555]
Uptake, 293T [1, 4]: high | Rel. Uptake, 293T ([2]; 293T, nucleoside uptake): high

COc1ccc(CC[C@H]2OC(=O)[C@@H]3CCCCN3C(=O)C(=O)C(C)(C)COC(=O)C=CCCN(C)C(=O)[C@H](CC(C)C)N(C)C(=O)[C@H]3CCCN3C(=O)[C@H](Cc3ccc(CC(=O)NCc4ccccc4)cc3)NC(=O)[C@H](c3ccccc3)NC(=O)CCC(=O)Nc3cccc2c3)cc1OC [Compound 1590]
IC50 ([1]; Table 15): > 600 nM | Rel. Uptake, 293T ([2]; 293T, nucleoside uptake): High (“High” indicates a response less than 0.3 times the activity relative to DMSO)

COc1ccc(CC[C@H]2OC(=O)[C@@H]3CCCCN3C(=O)C(=O)C(C)(C)COC(=O)C=CCCN(C)C(=O)[C@@H](c3ccccc3)NC(=O)[C@H](Cc3ccc(OP(C)(C)=O)cc3)NC(=O)[C@H]3CCCN3C(=O)[C@H](CC(C)C)N(C)C(=O)COc3cccc2c3)cc1OC [Compound 1520]
Uptake, 293T ([1]; Table 16): low | Rel. Uptake, 293T ([2]; 293T, nucleoside uptake): low

CCCCCCNC(=O)Cc1ccc(C[C@@H]2NC(=O)[C@H](c3ccccc3)NC(=O)CCC(=O)Nc3cccc(c3)[C@@H](CCc3ccc(OC)c(OC)c3)OC(=O)[C@@H]3CCCCN3C(=O)C(=O)C(C)(C)COC(=O)C=CCCN(C)C(=O)[C@H](CC(C)C)N(C)C(=O)[C@H]3CCCN3C2=O)cc1 [Compound 1591]
IC50 ([1]; Table 15): > 600 nM | Rel. Uptake, 293T ([2]; 293T, nucleoside uptake): Med

COc1ccc(CC[C@H]2OC(=O)[C@@H]3CCCCN3C(=O)C(=O)C(C)(C)COC(=O)C=CCCN(C)C(=O)[C@H](CC(C)C)N(C)C(=O)[C@H]3CCCN3C(=O)[C@H](Cc3ccc(CNC(=O)c4ccccc4)cc3)NC(=O)[C@H](c3ccccc3)NC(=O)CCC(=O)Nc3cccc2c3)cc1OC [Compound 1585]
IC50 ([1]; Table 14): < 300 nM | Rel. Uptake, 293T ([2]; 293T, nucleoside uptake): High (“High” indicates a response less than 0.3 times the activity relative to DMSO)

COc1ccc(CC[C@H]2OC(=O)[C@@H]3CCCCN3C(=O)C(=O)C(C)(C)COC(=O)C=CCCN(C)C(=O)[C@H](CC(C)C)N(C)C(=O)[C@H]3CCCN3C(=O)[C@H]3C[C@@H](NC(=O)OC(C)(C)C)CN3C(=O)C(c3ccccc3)NC(=O)CCC(=O)Nc3cccc2c3)cc1OC (stereo partly drawn) [Compound 1087]
Uptake, 293T [1, 4]: low | Rel. Uptake, 293T ([2]; 293T cells): low

COCC[C@@H]1NC(=O)COc2cccc(c2)[C@@H](CCc2ccc(OC)c(OC)c2)OC(=O)[C@@H]2CCCCN2C(=O)C(=O)C(C)(C)COC(=O)/C=C/CCN(C)C(=O)[C@H](C(C)C)N(C)C(=O)[C@@H]2CCCN2C(=O)[C@@H](Cc2ccccc2)N(C)C1=O [Compound 1613]
IC50 [3]: 59.5 nM

CC[C@H](C)[C@H]1C(=O)N(C)CC/C=C/C(=O)OCC(C)(C)C(=O)C(=O)N2CCCC[C@H]2C(=O)O[C@H](CCc2ccc(OC)c(OC)c2)c2cccc(c2)NC(=O)CCC(=O)N[C@@H](C)C(=O)N(C)[C@H](Cc2ccccc2)C(=O)N2CCC[C@H]2C(=O)N1C [Compound 1614]
IC50 [3]: 34.4 nM
